Data reported in article PMC11631053, “A receptor-based assay to study the sweet and bitter tastes of sweeteners and binary sweet blends: the SWEET project” (Chemical Senses, 2024).

Target: TAS2R38-AVI (Homo sapiens, UniProt P59533, A262V)
Experiment: Calcium mobilization assay, HEK293T-Gα16gust44 cells expressing TAS2R38-AVI
Experimental: Different concentration ranges were tested depending on the injected sweet compound. […] All of the concentration-receptor combinations were measured in triplicate, and each experiment was repeated at least 3 times. The Ca^2+ change was expressed as a fractional change in fluorescent light intensity: ΔF/F = (F − F0)/F0, where F was the fluorescent light intensity at each point, and F0 was the value of fluorescent light emitted prior to stimulus application. To calculate dose–response relationships, the changes in fluorescence upon stimulus application were averaged, mock-subtracted and baseline-corrected. The resulting obtained dose–response data were adjusted by using a 4-parameter logistic equation. The half-maximal effective concentration (EC50) was calculated by using SigmaPlot software (Systat Software, San Jose, CA, USA) as described in supplemental Supplementary Figs. S1, S2, and S3.

Sequence of TAS2R38-AVI (P59533 whole entry A262V): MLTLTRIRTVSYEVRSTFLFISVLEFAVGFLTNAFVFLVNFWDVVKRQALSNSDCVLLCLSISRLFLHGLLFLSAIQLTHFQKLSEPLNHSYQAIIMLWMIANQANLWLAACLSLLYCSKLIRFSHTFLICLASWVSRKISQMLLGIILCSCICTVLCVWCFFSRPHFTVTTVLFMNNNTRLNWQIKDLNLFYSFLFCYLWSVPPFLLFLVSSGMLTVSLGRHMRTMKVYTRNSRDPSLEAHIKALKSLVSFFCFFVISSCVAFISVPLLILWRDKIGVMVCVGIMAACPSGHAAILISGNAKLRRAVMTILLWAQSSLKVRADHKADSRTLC

## O=C(CO)[C@H](O)[C@H](O)[C@H](O)CO [D-allulose]
  concentrations at which TAS2R38-AVI was activated: > 300 mM
